Assay results reported in patent US7557213B2, “Substituted quinolones and methods of use” (ChemoCentryx, Inc., priority 2005, dated 2009).

target: T1, CCXCKR2 receptor (Homo sapiens, UniProt P25106); assay: Displacement of 125I-labeled SDF-1 from the CCXCKR2 receptor on MCF-7 and/or CCXCKR2-transfected MDA-MB-435S cells (radioligand binding, filtration); conditions: not given
T1 construct: expressed in transfected cells; host or cells: MDA-MB-435S transfected with pcDNA3.1(+)-hRDC1 and/or MCF-7 (endogenous receptor)
T1 sequence (P25106 whole entry): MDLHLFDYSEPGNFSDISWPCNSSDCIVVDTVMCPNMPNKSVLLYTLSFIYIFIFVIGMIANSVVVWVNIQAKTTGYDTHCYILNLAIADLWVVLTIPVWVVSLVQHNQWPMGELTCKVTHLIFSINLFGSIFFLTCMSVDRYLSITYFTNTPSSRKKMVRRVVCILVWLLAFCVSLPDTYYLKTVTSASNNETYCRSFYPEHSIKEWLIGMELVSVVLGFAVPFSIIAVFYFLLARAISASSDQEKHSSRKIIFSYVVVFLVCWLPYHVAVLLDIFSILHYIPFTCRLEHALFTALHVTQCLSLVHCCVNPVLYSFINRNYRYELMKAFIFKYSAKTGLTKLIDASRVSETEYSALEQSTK

`Cc1cccc(Cn2cc(C(=O)c3ccc(C)c(C)c3)c(=O)c3ccccc32)c1` [Example 9] and `Cc1cccc(Cn2cc(C(=O)c3cccc(C)c3)c(=O)c3ccccc32)c1` [Example 20] cannot be ordered by IC50: < 100 nM for the first, < 100 nM for the second.

In the case of `Cc1ccc(C(=O)c2cn(CC3CCCCC3)c3ccccc3c2=O)cc1C` [Example 39], the IC50 is reported as < 100 nM.

same assay, conditions: 125I SDF-1, 3 hr at 4° C., MCF-7 and/or MDA-MB-435S cells; read-out: Activity (concentration displacing at least 50% of the SDF-1 from the CCXCKR2 receptor)

First: Cc1ccc(C(=O)c2cn(Cc3ccccn3)c3cc4c(cc3c2=O)OCO4)cc1C [Example 1]
Second: Cc1ccc(C(=O)c2cn(Cc3ccccn3)c3cc4c(cc3c2=O)OCCO4)cc1C [Example 11]
The IC50 of the first is lower: 100 to 500 nM for the first, 500 to 20000 nM for the second. The first is the more potent here.

`Cc1ccc(C(=O)c2cn(Cc3cccnc3)c3cc4c(cc3c2=O)OCO4)cc1C` [Example 2] and `Cc1ccc(C(=O)c2cn(Cc3cccnc3)c3cc4c(cc3c2=O)OCCO4)cc1C` [Example 12] fall in the same range of IC50: 500 to 20000 nM for the first, 500 to 20000 nM for the second.

`Cc1ccc(C(=O)c2cn(Cc3ccncc3)c3cc4c(cc3c2=O)OCO4)cc1C` [Example 3] and `Cc1cccc(Cn2cc(C(=O)c3ccc(C)c(C)c3)c(=O)c3cc4c(cc32)OCCO4)c1` [Example 5] fall in the same range of IC50: 500 to 20000 nM for the first, 500 to 20000 nM for the second.

First: Cc1ccc(C(=O)c2cn(Cc3ccccc3F)c3ccccc3c2=O)cc1C [Example 4]
Second: Cc1ccc(C(=O)c2cn(Cc3ccccc3C(F)(F)F)c3ccccc3c2=O)cc1C [Example 36]
The IC50 of the first is lower: < 100 nM for the first, 500 to 20000 nM for the second.

`Cc1ccc(C(=O)c2cn(Cc3ccccc3C)c3cc4c(cc3c2=O)OCCO4)cc1C` [Example 6] and `Cc1ccc(C(=O)c2cn(Cc3ccccc3F)c3cc4c(cc3c2=O)OCCO4)cc1C` [Example 7] fall in the same range of IC50: 500 to 20000 nM for the first, 500 to 20000 nM for the second.

`Cc1ccc(C(=O)c2cn(Cc3ccccn3)c3ccccc3c2=O)cc1C` [Example 8] and `Cc1ccc(C(=O)c2cn(Cc3cnccn3)c3ccccc3c2=O)cc1C` [Example 57] cannot be ordered by IC50: < 100 nM for the first, < 100 nM for the second.

First: Cc1ccc(C(=O)c2cn(Cc3cccnc3)c3ccccc3c2=O)cc1C [Example 10]
Second: Cc1ccc(C(=O)c2cn(Cc3ncccc3F)c3ccccc3c2=O)cc1C [Example 37]
The IC50 of the first is higher: 500 to 20000 nM for the first, < 100 nM for the second. The second is the more potent here.

`Cc1ccc(C(=O)c2cn(Cc3ccccn3)c3ccc(C(F)(F)F)cc3c2=O)cc1C` [Example 13] and `Cc1ccc(C(=O)c2cn(Cc3ccccc3F)c3ccc(C(F)(F)F)cc3c2=O)cc1C` [Example 14] fall in the same range of IC50: 500 to 20000 nM for the first, 500 to 20000 nM for the second.

`O=C(c1ccncc1)c1cn(Cc2ccccc2F)c2ccccc2c1=O` [Example 15] and `O=C(c1cccnc1)c1cn(Cc2ccccc2F)c2ccccc2c1=O` [Example 33] fall in the same range of IC50: 500 to 20000 nM for the first, 500 to 20000 nM for the second.

First: O=C(c1ccncc1)c1cn(Cc2ccccn2)c2ccccc2c1=O [Example 16]
Second: Cc1cccc(C(=O)c2cn(Cc3ccccn3)c3ccccc3c2=O)c1 [Example 22]
The IC50 of the first is higher: 500 to 20000 nM for the first, < 100 nM for the second. The second is the more potent here.

`Cc1cccc(Cn2cc(C(=O)c3ccncc3)c(=O)c3ccccc32)c1` [Example 17] and `Cc1cccc(Cn2cc(C(=O)c3cccnc3)c(=O)c3ccccc32)c1` [Example 34, 1-(3-Methyl-benzyl)-3-(pyridine-3-carbonyl)-1H-quinolin-4-one] fall in the same range of IC50: 500 to 20000 nM for the first, 500 to 20000 nM for the second.

First: Cc1cccc(Cn2cc(C(=O)c3ccccc3)c(=O)c3ccccc32)c1 [Example 18]
Second: Cc1cccc(C(=O)c2cn(Cc3ccccc3F)c3ccccc3c2=O)c1 [Example 21]
The IC50 of the first is higher: 100 to 500 nM for the first, < 100 nM for the second. The second is the more potent here.

`Cc1ccc(C(=O)c2cn(Cc3ccccc3F)c3cc4c(cc3c2=O)OC(F)(F)O4)cc1C` [Example 19] and `Cc1ccc(C(=O)c2cn(Cc3ccccc3F)c3ccncc3c2=O)cc1C` [Example 46] fall in the same range of IC50: 500 to 20000 nM for the first, 500 to 20000 nM for the second.

First: Cc1cc(C(=O)c2cn(Cc3ccccc3F)c3ccccc3c2=O)ccn1 [Example 24]
Second: Cc1cc(C(=O)c2cn(Cc3ccccc3F)c3ccccc3c2=O)cnc1C [Example 40]
The IC50 of the first is higher: 500 to 20000 nM for the first, < 100 nM for the second.

`Cc1cc(C(=O)c2cn(Cc3cccc(C)n3)c3ccccc3c2=O)ccn1` [Example 25] and `Cc1cccc(Cn2cc(C(=O)c3ccnc(C)c3)c(=O)c3ccccc32)c1` [Example 26] fall in the same range of IC50: 500 to 20000 nM for the first, 500 to 20000 nM for the second.

`Cc1ccc(C(=O)c2cn(CCc3ccccc3)c3ccccc3c2=O)cc1C` [Example 27, 3-(3,4-Dimethyl-benzoyl)-1-phenethyl-1H-quinolin-4-one] and `Cc1ccc(C(=O)c2cn(-c3ccccc3)c3ccccc3c2=O)cc1C` [Example 38] fall in the same range of IC50: 500 to 20000 nM for the first, 500 to 20000 nM for the second.

`Cc1ccc(C(=O)c2cn(Cc3nnsc3Cl)c3ccccc3c2=O)cc1C` [Example 28, 1-(5-Chloro-[1,2,3]thiadiazol-4-ylmethyl)-3-(3,4-dimethyl-benzoyl)-1H-quinolin-4-one] and `Cc1ccc(C(=O)c2cn(Cc3ncon3)c3ccccc3c2=O)cc1C` [Example 29] cannot be ordered by IC50: < 100 nM for the first, < 100 nM for the second.

First: Cc1cc(Cn2cc(C(=O)c3ccc(C)c(C)c3)c(=O)c3ccccc32)no1 [Example 30, 3-(3,4-Dimethyl-benzoyl)-1-(5-methyl-isoxazol-3-ylmethyl)-1H-quinolin-4-one]
Second: Cc1ccc(C(=O)c2cn(Cc3cscn3)c3ccccc3c2=O)cc1C [Example 31]
The IC50 of the first is higher: 100 to 500 nM for the first, < 100 nM for the second.

`Cc1cccc(Cn2cc(C(=O)c3cccnc3)c(=O)c3ccccc32)n1` [Example 35] and `Cc1cccc(Cn2cc(C(=O)c3cnccn3)c(=O)c3ccccc32)n1` [Example 63] fall in the same range of IC50: 500 to 20000 nM for the first, 500 to 20000 nM for the second.

First: Cc1ccc(C(=O)c2cn(Cc3cccc(-c4ncco4)n3)c3ccccc3c2=O)cc1C [Example 41]
Second: Cc1ccc(C(=O)c2cn(Cc3cccc(-c4cncnc4)n3)c3ccccc3c2=O)cc1C [Example 44]
The IC50 of the first is higher: 100 to 500 nM for the first, < 100 nM for the second. The second is the more potent here.

First: Cc1ccc(C(=O)c2cn(Cc3cccc(-c4ccccc4)n3)c3ccccc3c2=O)cc1C [Example 42]
Second: Cc1ccc(C(=O)c2cn(Cc3cccc(Br)n3)c3ccccc3c2=O)cc1C [Example 51]
The IC50 of the first is higher: 100 to 500 nM for the first, < 100 nM for the second. The second is the more potent here.

Compared with `Cc1ccc(C(=O)c2cn(Cc3cccc(C)c3F)c3ccccc3c2=O)cc1C` [Example 45], `Cc1ccc(C(=O)c2cn(Cc3c(C)cccc3C)c3ccccc3c2=O)cc1C` [Example 58] is higher in IC50: < 100 nM for the first, 500 to 20000 nM for the second.

Compared with `Cc1cccc(Cn2cc(C(=O)c3ccc(C)c(C)c3)c(=O)c3cnccc32)c1` [Example 47], `Cc1cccc(Cn2cc(C(=O)c3cnc(C)c(C)c3)c(=O)c3cc(F)ccc32)c1` [Example 55] is lower in IC50: 100 to 500 nM for the first, < 100 nM for the second. The second is the more potent here.

First: Cc1ccc(C(=O)c2cn(Cc3cnn[nH]3)c3ccccc3c2=O)cc1C [Example 48]
Second: Cc1ccc(C(=O)c2cn(Cc3ncccn3)c3ccccc3c2=O)cc1C [Example 56]
The IC50 of the first is higher: 100 to 500 nM for the first, < 100 nM for the second. The second is the more potent here.

Compared with `Cc1ccc(C(=O)c2cn(Cc3ccccc3F)c3ccccc3c2=O)nc1C` [Example 49], `O=C(c1cnccn1)c1cn(Cc2ccccc2F)c2ccccc2c1=O` [Example 61] is higher in IC50: < 100 nM for the first, 500 to 20000 nM for the second.

`Cc1cccc(Cn2cc(C(=O)c3cnc(C)c(C)c3)c(=O)c3ccccc32)n1` [Example 50] and `Cc1cc(C(=O)c2cn(Cc3cccc(Br)n3)c3ccccc3c2=O)cnc1C` [Example 54] cannot be ordered by IC50: < 100 nM for the first, < 100 nM for the second.

`CC(=O)Nc1cccc(Cn2cc(C(=O)c3ccc(C)c(C)c3)c(=O)c3ccccc32)n1` [Example 52] and `Cc1ccc(C(=O)c2cn(Cc3cccc(NS(C)(=O)=O)n3)c3ccccc3c2=O)cc1C` [Example 60] fall in the same range of IC50: 100 to 500 nM for the first, 100 to 500 nM for the second.

`Cc1ccc(C(=O)c2cn(Cc3cccc(Br)n3)c3ccc(F)cc3c2=O)cc1C` [Example 53] and `Cc1ccc(C(=O)c2cn(Cc3cccc(Br)n3)c3cc(F)ccc3c2=O)cc1C` [Example 59] cannot be ordered by IC50: < 100 nM for the first, < 100 nM for the second.

`Cc1cccc(Cn2cc(C(=O)c3cnccn3)c(=O)c3ccccc32)c1` [Example 62] was tested, and the IC50 was 500 to 20000 nM.
